Measurements: patent US20240398785A1, “SMALL MOLECULE DRUGS FOR THE INDUCTION OF TRAINED IMMUNITY” (THE UNIVERSITY OF CHICAGO, priority 2023, published 2024)
Structures can show the parent of a compound that is named as a salt. Where two headings read alike, the source gives them in different places.

Legend:
[1] = tested on: bone marrow-derived macrophages (BMDMs); assay: Chemical inhibition of training (MTA, EGCG, 2DG pre-treatment); assay type: cell-based, mouse
Experimental: FIG. 3D is a graph of a glycolysis inhibition assay using 1 mM 2DG and measuring TNF-α concentration following Pam3 challenge in cells trained with 10 μM hydrocortisone after 1 h of pre-treatment with PBS or 2DG (n=15). FIGS. 3E-3I are graphs of TNF-α concentration following Pam3 challenge in cells trained with M 5-Fluoroindole-2-Carboxylic Acid (FIG. 3E), Myricetin (FIG. 3F), Nerol (FIG. 3G), Hydroquinone (FIG. 3H), or Fenoterol hydrobromide (FIG. 3I) after pre-treatment with PBS or glycolysis inhibitor, 2DG (n=15). […] All values are expressed as mean±SEM, and statistics were conducted using 2-way ANOVA with Sidak's multiple comparisons test (significance compared with untrained group). *P<0.05, **P<0.01, ***P<0.001, ****P<0.0001, n.s., not significant.
For inhibition studies, BMDMs received inhibitors at specified concentrations 1 h prior to stimulation with training molecules, and inhibitors were present for the entire 24 h training period. […] To test metabolic pathway involvement, cells were pretreated with 1 mM 2′ deoxy-D-glucose.
Upregulation of glycolysis is commonly implicated as one of the underlying mechanisms in the induction of trained immunity.

[2] = tested on: bone marrow-derived macrophages (BMDMs); assay: High-throughput trained immunity screening (TNF-α by HEK-Blue Quanti-Blue assay); conditions: Mus musculus, BMDM, read-out: Fold Change (TNF-α production increase over untrained control)
Experimental: High-throughput trained immunity screening: Mature BMDMs were plated at 25,000 cells per well in 45 μL media in 384-well flat-bottomed plates using the Thermo Multidrop Combi liquid handler. Cells were rested overnight at 37° C. and 5% CO2. The following day, training compounds from the Microsource Spectrum Library were added at a volume of 45 nL using the PerkinElmer Janus G3 with Pintools for a final concentration of 1 μM. On day 2, supernatant was removed using the Janus, cells were washed with warm PBS using the Multidrop, and fresh media was added to the cells using the Multidrop. On day 5, cell density was quantified using the IncuCyte imager and software, then cells received media containing 25 ng/mL IFN-7 (BD Biosciences) for 24 hours. On day 6, cells were stimulated with 25 ng/mL Pam3-CSK4 (Invivogen). Supernatant was collected on day 6 and on day 7 following 24 hours of TLR stimulation, and it was stored at −80° C.
To measure TNF-α concentration in the supernatant, a high-throughput Quanti-Blue assay was used. HEK-Blue TNF-α cells (Invivogen) were plated at a density of 25,000 cells per well in 45 μL media (DMEM, 10% HIFBS). 5 μL of supernatant is added to each well using the Janus liquid handler, then the plates were incubated for 24 hours at 37° C. and 5% CO2. The following day, 20 μL of concentrated Quanti-Blue reagent was added to each well using the Combi liquid handler, and the plate was shaken for one minute. Then, the plate incubated at room temperature for 15 minutes before absorbance was measured at 628 nm using the BioTek Synergy NEO 2. All data is represented as a fold change relative to the average of the Pam3 only untrained control (n=20) on each plate.
An additional plate was seeded alongside the screen plates for a manual training assay and ELISA measurement of cytokine secretion to confirm that the BMDMs were behaving as expected. […] On Day 5, each well was imaged using an IncuCyte to quantify cell viability relative to the untrained controls.^20 Furthermore, the cells were checked to see if they maintained a resting phenotype before TLR stimulation by collecting and freezing the supernatant on Day 6 to measure TNF-α concentration after the assay was complete. Trained immunity effects are distinct from innate immune priming, so we checked that the cells maintained a resting phenotype before TLR stimulation by collecting and freezing the supernatant from each of the three screening replicates on Day 6 to measure TNF-α concentration after the assay was complete (FIG. 1F).
For each replicate of the screen, a modified version of the standard 7-day training assay was used.^18 TNF-α concentration was measured using a high throughput Quanti-Blue assay in HEK-Blue TNF-α cells. Concentration is proportional to absorbance measured at 628 nm within the range of the assay. 2,000 small molecules from the MicroSource Spectrum Library were screened.

[3] = tested on: peritoneal cells; assay: Peritoneal lavage spectral flow cytometry 2 h after LPS challenge; assay type: in vivo, mouse
Experimental: FIG. 4A is a schematic drawing showing a method of screening small molecule inducers of trained immunity in vivo. Mice were injected intraperitoneally (i.p.) with small molecules or vehicle control on days 0, 2, and 4. Mice were challenged with 1 μg lipopolysaccharide (LPS) on day 11 and then bled 1 hour (h) later. […] All values are expressed as mean±SEM, and statistics were conducted using 1-way ANOVA or 2-way ANOVA with multiple comparisons (significance compared with untrained group). *P<0.05, **P<0.01, ***P<0.001, ****P<0.0001, n.s., not significant. All values are expressed as mean±SEM, and statistics were conducted using 1-way ANOVA with two-stage linear step-up procedure (significance compared with untrained group). *P<0.05, **P<0.01, ***P<0.001, ****P<0.0001, n.s., not significant.
To determine which cells were involved, mice were given training injections and challenged as previously described. Then, 2 h after challenge, the mice were sacrificed, and peritoneal cells were collected by lavage. The cells were fixed and stained for intracellular TNF-α and IL-6 and surface costimulatory markers, CD40, CD86, and MHCII. Lineage markers were included for innate immune cells, including neutrophils, eosinophils, monocytes, macrophages, and dendritic cells. The stained cells were then analyzed via spectral flow cytometry.
The activation of these cells and changes to co-stimulatory molecules were then investigated.

[4] = tested on: bone marrow-derived macrophages (BMDMs); assay: In vitro trained immunity assay (ELISA, TLR agonist challenge); assay type: cell-based, mouse; conditions: for IL-6 production following challenge: 100 ng/mL Pam3
Experimental: FIG. 2H is a graph showing TNF-α concentration from BMDMs trained with PBS or hydrocortisone at a concentration of 10 μM followed by challenge with 100 nanograms per milliliter (ng/mL) lipopolysaccharide (LPS) or Pam3 (n=30). […] FIG. 2I is a graph showing TNF-α or interleukin-6 (IL-6) concentration from BMDMs treated with 10 μM hit compounds one hour (hr) prior to 24 hr stimulation with 100 ng/mL Pam3 (n=6). […] All values are expressed as mean±SEM, and statistics were conducted using 1-way ANOVA with Dunnett's multiple comparisons test (significance compared with untrained group). *P<0.05, **P<0.01, ***P<0.001, ****P<0.0001, n.s., not significant.
TNF-α (FIG. 13D) and IL-6 (FIG. 13E) were measured from BMDM cell culture supernatant 24 h following treatment with small molecules or β-glucan.
In vitro trained immunity assay: Mature BMDMs were plated at 10^5 cells per well in 200 L media in 96-well flat-bottomed plates and rested overnight at 37° C. and 5% CO2. The following day, training molecules were added at specified concentrations and incubated for 24 hours. After training, cells were washed with warm PBS and rested for 3 days in fresh media. On day 5, cells received fresh media containing 25 ng/mL IFN-7 (BD Biosciences) for 24 hours. On day 6, cells were stimulated with 100 ng/mL Pam3CSK4 (Invivogen). Cell supernatant was collected 24 hours after stimulation. Supernatants were measured for IL-6 and TNF-α concentrations using ELISA MAX Deluxe kits (BioLegend) according to manufacturer's instructions.
To select an optimal concentration and agonist pairing, a series of ELISAs were performed to validate the training effects.

[5] = glycolysis inhibitor 2-deoxy-D-glucose 1 mM
[6] = peritoneal lavage, 2 h after challenge

SMILES | fold induction at 1 µM [2] | further results
O=C(O)c1cc2cc(F)ccc2[nH]1 [5-Fluoroindole-2-carboxylic acid] | 2.47 | training (TNF-α after Pam3) after 2DG pre-treatment [1]: not susceptible to suppression of training
NC(CO)C(=O)NNCc1ccc(O)c(O)c1O (centres unmarked) [Benserazide hydrochloride] | 1.61 | –
CCCC1O[C@@H]2C[C@H]3[C@@H]4CCC5=CC(=O)C=C[C@]5(C)[C@H]4[C@@H](O)C[C@]3(C)[C@]2(C(=O)CO)O1 (some centres unmarked) [Budesonide] | 2.69 | –
CCC(=O)O[C@]1(C(=O)CCl)[C@@H](C)C[C@H]2[C@@H]3CCC4=CC(=O)C=C[C@]4(C)[C@@]3(F)[C@@H](O)C[C@@]21C [Clobetasol propionate] | 2.07 | –
Oc1ccc(Cl)cc1Cc1cc(Cl)ccc1O [Dichlorophene] | 1.61 | –
CC(Cc1ccc(O)cc1)NCC(O)c1cc(O)cc(O)c1 (centres unmarked) [Fenoterol hydrobromide] | 1.62 | training (TNF-α after Pam3) after 2DG pre-treatment [1, 5]: not susceptible to suppression of training
O=c1[nH]c(=O)n([C@H]2C[C@H](O)[C@@H](CO)O2)cc1F [Floxuridine] | 1.6 | –
CC1(C)O[C@@H]2C[C@H]3[C@@H]4C[C@H](F)C5=CC(=O)C=C[C@]5(C)[C@H]4[C@@H](O)C[C@]3(C)[C@]2(C(=O)CO)O1 [Flunisolide] | 2.49 | training (TNF-α after Pam3) after 2DG pre-treatment [1, 5]: significant inhibition of training; training (TNF-α after Pam3) after EGCG pre-treatment ([1]; histone acetyltransferase inhibitor EGCG 15 μM, 10 μM compound): slightly reduce training though statistical significance was not achieved; training (TNF-α after Pam3) after MTA pre-treatment ([1]; methyltransferase inhibitor MTA 500 μM, 10 μM compound): significant inhibition of training; cell count in the peritoneal lavage ([3]; 2 h after challenge): increased cell count; CD86 on eosinophils and small peritoneal macrophages (MFI of CD86+ cells) ([3]; peritoneal lavage): increased amount; MFI of MHCII+ SPMs ([3]; peritoneal lavage): increased; number of TNF-α+ and IL-6+ eosinophils [3, 6]: significant increases
CC1(C)O[C@@H]2C[C@H]3[C@@H]4C[C@H](F)C5=CC(=O)C=C[C@]5(C)[C@@]4(F)[C@@H](O)C[C@]3(C)[C@]2(C(=O)CO)O1 [Fluocinolone acetonide] | 2.28 | –
CC(=O)OCC(=O)[C@@]12OC(C)(C)O[C@@H]1C[C@H]1[C@@H]3C[C@H](F)C4=CC(=O)C=C[C@]4(C)[C@@]3(F)[C@@H](O)C[C@@]12C [Fluocinonide] | 2.29 | –
CC1(C)O[C@@H]2C[C@H]3[C@@H]4CCC5=CC(=O)CC[C@]5(C)[C@@]4(F)[C@@H](O)C[C@]3(C)[C@]2(C(=O)CCl)O1 [Halcinonide] | 2.7 | –
CC(=O)OCC(=O)[C@@]1(O)CC[C@H]2[C@@H]3CCC4=CC(=O)CC[C@]4(C)[C@H]3[C@@H](O)C[C@@]21C [Hydrocortisone acetate] | 1.68 | –
C[C@]12CCC(=O)C=C1CC[C@@H]1[C@@H]2[C@@H](O)C[C@@]2(C)[C@H]1CC[C@]2(O)C(=O)CO [Hydrocortisone] | 1.78 | IL-6 production following challenge [4]: increased production of IL-6; TNF-α training effect with TLR4 and TLR1/2 agonists ([4]; 10 μM, challenge 100 ng/mL LPS or Pam3, n=30): Training effects were observed; training (TNF-α after Pam3) after 2DG pre-treatment [1, 5]: significant inhibition of training
Oc1ccc(O)cc1 [Hydroquinone] | 1.68 | training (TNF-α after Pam3) after 2DG pre-treatment [1, 5]: not susceptible to suppression of training; cytokine MFIs among TNF-α+ neutrophils and IL-6+ eosinophils [3, 6]: significant increases; number of TNF-α+ and IL-6+ cells [3, 6]: no increase
C=C1CCC2C(CC2(C)C)C(=O)CCC1O (centres unmarked) [Isokobusone] | 1.66 | –
COc1ccc(OC)c(C(O)C(C)N)c1 (centres unmarked) [Methoxamine hydrochloride] | 2.21 | –
O=c1c(O)c(-c2cc(O)c(O)c(O)c2)oc2cc(O)cc(O)c12 [Myricetin] | 2.19 | IL-6 production following challenge [4]: increased production of IL-6; training (TNF-α after Pam3) after 2DG pre-treatment [1, 5]: not susceptible to suppression of training; cell count in the peritoneal lavage ([3]; 2 h after challenge): increased cell count; number of TNF-α+ and IL-6+ eosinophils [3, 6]: significant increases
CC(=O)N[C@@H](CC(=O)O)C(=O)O [N-Acetylaspartic acid] | 1.6 | –
CC(C)[C@H]1CC[C@H](C(=O)N[C@H](Cc2ccccc2)C(=O)O)CC1 [Nateglinide] | 1.6 | –
CC(C)=CCC/C(C)=C\CO [Nerol] | 1.73 | training (TNF-α after Pam3) after 2DG pre-treatment [1, 5]: not susceptible to suppression of training
NC(=O)N/N=C/c1ccc([N+](=O)[O-])o1 [Nitrofurazone] | 1.69 | –
CN1CCCN=C1COC(=O)C(O)(c1ccccc1)C1CCCCC1 (centres unmarked) [Oxyphencyclimine hydrochloride] | 1.67 | –
C[C@]12C=CC(=O)C=C1CC[C@@H]1[C@@H]2[C@@H](O)C[C@@]2(C)[C@H]1CC[C@]2(O)C(=O)CO [Prednisolone] | 2.06 | –
CCC(C)(C)C(=O)O[C@H]1C[C@@H](C)C=C2C=C[C@H](C)[C@H](CC[C@@H]3C[C@@H](O)CC(=O)O3)[C@H]21 [Simvastatin] | 1.61 | –
N#Cc1c(Cl)c(Cl)c(Cl)c(C#N)c1Cl [Tetrachloroisophthalonitrile] | 1.61 | –
CC1(C)C(C(Cl)Cl)C2(Cl)C(Cl)C(Cl)C1(Cl)C2(Cl)Cl (centres unmarked) [Toxaphene] | 1.63 | –
CC(=O)OCC(=O)[C@@]1(O)[C@H](OC(C)=O)C[C@H]2[C@@H]3CCC4=CC(=O)C=C[C@]4(C)[C@@]3(F)[C@@H](O)C[C@@]21C [Triamcinolone diacetate] | 1.73 | –
C[C@]12C=CC(=O)C=C1CC[C@H]1[C@@H]3C[C@@H](O)[C@](O)(C(=O)CO)[C@@]3(C)C[C@H](O)[C@@]12F [Triamcinolone] | 1.76 | –
Cc1cc2cc3c(C)cc(=O)oc3c(C)c2o1 [Trioxsalen] | 1.66 | –
Cc1cc(CC(=O)O)n(C)c1C(=O)c1ccc(Cl)cc1 [Zomepirac Sodium] | 1.7 | –
